Measurements: US20260144769A1, “4-PHENYLBUTYRATE RESTORED GABA UPTAKE AND REDUCED SEIZURES IN SLC6A1 VARIANT-MEDIATED DISORDERS” (Vanderbilt University, priority 2022, published 2026)

Experiments:
Format in all cases: cell-based
GAT-1 L460R = GAT-1 L460R (Rattus norvegicus, UniProt P23978, L460R); experiment: 3H GABA uptake, corrected iPSC astrocytes transfected with GAT-1^YFP cDNA; design: The coding region of rGAT-1 was inserted into pEYFP-C1 (Clontech, Palo Alto, CA); expressed in transfected cells; host or cells: human astrocytes differentiated from CRISPR-corrected patient iPSCs; conditions: 2 mM PBA, 24 hrs
Protocol: (§1) Live images of human neural progenitor cells (NPCs), astrocytes and GABAergic inhibitory neurons differentiated from the human induced pluripotent stem cells (iPSCs) on the day of experiment. […] The DMSO treated corrected or patient cells was taken as 1. […] GABA flux was measured after 30 min transport at room temperature. The influx of GABA, expressed in pmol/μg protein/min, was averaged from duplicates for each condition and for each transfection. The average counting was DMSO treated condition taken as 1. In FIG. 5B, FIG. 5D and FIG. 5F, 966 stands for CI-966 (50 μM) and 711 stands for NNC-711 (35 μM) that was applied 30 min to the astrocytes transfected with the wildtype GAT-1^YFP before preincubation and removed during preincubation. In FIGS. 5B and D, ***p<0.001 vs. corrected DMSO treated. § § <0.01, § § § p<0.001 vs. patient DMSO treated. […] In FIGS. 5B-E, n=4-8 batches of cells. In FIG. 5F, n=4-5 different transfections). Unpaired t test was used for FIG. 5C and FIG. 5E. […] Values were expressed as mean±S.E.M.). […]
(§2) Briefly, cells were cultured in […] dishes for 3 days before the GABA uptake experiment in DMEM with 10% fetal bovine serum and 1% penicillin/streptomycin. […] Glacial acetic acid was added, and lysates were then determined on a liquid scintillator with QuantaSmart. […]

GAT-1 E16X [1] = molecular target: T1, GAT-1 E16X (Rattus norvegicus, UniProt P23978); experiment: as above; design: The coding region of rGAT-1 was inserted into pEYFP-C1 (Clontech, Palo Alto, CA); expressed in transfected cells; host or cells: human astrocytes differentiated from CRISPR-corrected patient iPSCs; conditions: 2 mM PBA, 24 hrs
Protocol: as §1, §2

GAT-1 E16X [2] = molecular target: T1, GAT-1 E16X; experiment: 3H GABA uptake, HEK293T, mutant cDNA alone ("homozygous"); design: with only 15 amino acids left in the protein peptide; expressed in transfected cells; host or cells: HEK293T cells; conditions: PBA 2 mM, 24 hrs
Protocol: GABA uptake activity was measured by the high-throughput 3H radio-labeling GABA uptake on a liquid scintillator with QuantaSmart. […] HEK293T cells were transfected with the wildtype or the mutant GAT-1^YFP cDNAs alone for 48 hr. […] HEK293T cells were transfected with the wildtype GAT-1^YFP alone or in mixture of the wildtype or the mutant cDNAs for 48 hr. In the mixed condition, the ratio of the wildtype GAT-1 with pcDNA or the mutant cDNAs are 1:1 with the total cDNA amount of 0.5 μg. […] Both wt and the mutant were normalized to its own DMSO treated conditions. 966 stands for the wildtype treated with CI-966 (50 μM) while 711 stands for NNC-711 (35 μM). (N=4-7 different transfections. In FIG. 4A and FIG. 4B, *P<0.05, **P<0.01, ***p<0.001 vs. wt 0. In FIG. C and FIG. 4D, *P<0.05, **P<0.01, ***p<0.001 vs. its own DMSO treated. In FIG. 4C, ns stands for no significance. One-way analysis of variance (ANOVA) and Newman-Keuls test. Values were expressed as mean±S.E.M.
The plasmid cDNA encoding enhanced yellow fluorescent protein (EYFP)-tagged rat GAT-1 has been previously described. […]
as §2

Compound: O=C(O)CCCc1ccccc1 [PBA, 4-phenylbutyric acid]
- GABA uptake normalized to its DMSO treated (GAT-1 L460R): 1.18±0.045
- GABA uptake normalized to its DMSO treated (GAT-1 E16X [1]): 1.182±0.025
- GABA uptake normalized to its own DMSO treated condition (GAT-1 E16X [2]): 0.813±0.06
